Reference: US11098055B2, “Ester ACC inhibitors and uses thereof” (Gilead Apollo, LLC, priority 2015, dated 2021)
Converted amounts (≈) assume the structure as drawn.

Key:
hACC2 = hACC2 (Homo sapiens, UniProt O00763); assay: In vitro ACC2 inhibition assay (ADP-Glo), human ACC2; assay type: biochemical
Protocol: (§1) An exemplary procedure for the in vitro ACC inhibition assay, which can be used to determine the inhibitory action of compounds of the invention toward either human (hACC2) or fungal (fACC2) ACC2, follows. The ADP-Glo™ Kinase Assay kit from Promega was used. The ADP-Glo™ Kinase Assay is a luminescent ADP detection assay to measure enzymatic activity by quantifying the amount of ADP produced during an enzyme reaction. The assay is performed in two steps; first, after the enzyme reaction, an equal volume of ADP-Glo™ Reagent is added to terminate the reaction and deplete the remaining ATP. Second, the Kinase Detection Reagent is added to simultaneously convert ADP to ATP and allow the newly synthesized ATP to be measured using a luciferase/luciferin reaction. Luminescence can be correlated to ADP concentrations by using an ATP-to-ADP conversion curve. The detailed procedure is as follows. 50 μL of the compound being tested (600 μM in DMSO) was added to a 384-well dilution plate. The compound was diluted 1:3 in succession in DMSO for each row for 11 wells. 0.5 μL ACC2 working solution was added to 384-well white Optiplate assay plate. 0.5 μL diluted compound solution in each column from step 2 was added to assay plate, each row containing 2 replicates. For the last 2 rows, 0.5 μL negative control (DMSO) was added in one row and 0.5 μL positive control (compound I-97) in the other. The plates were incubated at room temperature for 15 minutes. 5 μL substrate working solution was added to each well to initiate reaction. Final ACC2 reaction concentrations consist of: 5 nM ACC2, 20 μM ATP, 20 μM acetyl-CoA, 12 mM NaHCO3, 0.01% Brij35, 2 mM DTT, 5% DMSO, test compound concentrations: 30 μM, 10 μM, 3.33 μM, 1.11 μM, 0.37 μM, 0.123 μM, 0.0411 μM, 0.0137 μM, 0.00457 μM, 0.00152 μM, and 0.00051 μM. Plates were incubated at room temperature for 60 minutes. 10 μL ADP glo reagent was added. Plates were incubated at room temperature for 40 minutes. 20 μL kinase detection reagent was added. Plates were incubated at room temperature for 40 minutes, and then read on a Perkin Elmer EnVision 2104 plate reader for luminescence as Relative Light Units (RLU).
(§2) Data for each concentration, as well as the positive and negative controls, were averaged, and the standard deviation calculated. Percent inhibition was calculated by the formula: 100×(average negative control−compound)/(average negative control−average positive control). The IC50 for each compound was calculated by fitting the data with a non-linear regression equation: Y=Bottom+(Top−Bottom)/(1+10^((Log IC50−X)*HillSlope)), where X is the log of compound concentration and Y is percent inhibition.

fACC2 = fACC2 (UniProt Q00955); assay: In vitro ACC2 inhibition assay (ADP-Glo), fungal ACC2; assay type: biochemical
Protocol: as §1, §2

C. albicans ATCC 90028 = assay: Anti-Fungal (Candida) Activity Assay, broth microtiter MIC; assay type: cell-based; conditions: ATCC90028, 48 h, 3 replicates, MIC read at 48 h
Protocol: (§3) Compounds of the present invention were evaluated in an Anti-Fungal Activity Assay. An exemplary procedure for the assay, which measures the susceptibility of various Candida species to anti-fungal compounds, follows. Compounds to be tested (including fluconazole and amphotericin B) were dissolved in DMSO to obtain a solution having a concentration of 1 mg/mL. These stock solutions were sterile filtered using a 0.22 um nylon syringe filter, then diluted in sterile water to achieve a final concentration of 128 μg/mL.
(§4) All species were grown from frozen stock by directly plating on to freshly prepared Sabouraud Dextrose agar (BD, Difco) and incubated overnight in ambient air at 35° C. for 24 h. A direct suspension was prepared in RPMI 1640+MOPS (Lonza, Biowhittaker) by taking individual colonies from the overnight cultures using sterile swabs soaked in sterile saline. The concentration of the suspension was determined using pre-determined standard curves. These suspensions were then diluted down to 5×10^3 CFU/mL to achieve a final concentration of 2.5×10^3 CFU/mL once added to the microtiter plate as per CLSI guidelines (M27-A3, Vol. 28 No. 14).
(§5) Broth microtiter MIC challenge plates were prepared following CLSI guidelines (M27-A3, Vol. 28 No. 14). The original CLSI guidelines focused on reading Candida MICs after 48 h of incubation. As reading after only 24 h offers a clear advantage of patient care, QC limits are being established for all drugs at 24 h. That being said there are no known interpretive breakpoints for amphotericin B at 24 h and the current fluconazole interpretive breakpoints are based on a 48 h reading. The MIC for the test compounds were recorded at 48 h. All MIC determinations were achieved by visually comparing the growth found in the antibiotic challenged wells to that of the growth control.

[1] = system: C. parapsilosis ATCC 22019; assay: as above; assay type: cell-based; conditions: Lodderomyces parapsilosis, ATCC22019, 48 h, 3 replicates, MIC read at 48 h
Protocol: as §3, §4, §5

C. krusei ATCC 6258 = assay: as above; assay type: cell-based, Candida krusei; conditions: Pichia kudriavzevii, ATCC6258, 48 h, 3 replicates, MIC read at 48 h
Protocol: as §3, §4, §5

Sequence of hACC2 (O00763 whole entry): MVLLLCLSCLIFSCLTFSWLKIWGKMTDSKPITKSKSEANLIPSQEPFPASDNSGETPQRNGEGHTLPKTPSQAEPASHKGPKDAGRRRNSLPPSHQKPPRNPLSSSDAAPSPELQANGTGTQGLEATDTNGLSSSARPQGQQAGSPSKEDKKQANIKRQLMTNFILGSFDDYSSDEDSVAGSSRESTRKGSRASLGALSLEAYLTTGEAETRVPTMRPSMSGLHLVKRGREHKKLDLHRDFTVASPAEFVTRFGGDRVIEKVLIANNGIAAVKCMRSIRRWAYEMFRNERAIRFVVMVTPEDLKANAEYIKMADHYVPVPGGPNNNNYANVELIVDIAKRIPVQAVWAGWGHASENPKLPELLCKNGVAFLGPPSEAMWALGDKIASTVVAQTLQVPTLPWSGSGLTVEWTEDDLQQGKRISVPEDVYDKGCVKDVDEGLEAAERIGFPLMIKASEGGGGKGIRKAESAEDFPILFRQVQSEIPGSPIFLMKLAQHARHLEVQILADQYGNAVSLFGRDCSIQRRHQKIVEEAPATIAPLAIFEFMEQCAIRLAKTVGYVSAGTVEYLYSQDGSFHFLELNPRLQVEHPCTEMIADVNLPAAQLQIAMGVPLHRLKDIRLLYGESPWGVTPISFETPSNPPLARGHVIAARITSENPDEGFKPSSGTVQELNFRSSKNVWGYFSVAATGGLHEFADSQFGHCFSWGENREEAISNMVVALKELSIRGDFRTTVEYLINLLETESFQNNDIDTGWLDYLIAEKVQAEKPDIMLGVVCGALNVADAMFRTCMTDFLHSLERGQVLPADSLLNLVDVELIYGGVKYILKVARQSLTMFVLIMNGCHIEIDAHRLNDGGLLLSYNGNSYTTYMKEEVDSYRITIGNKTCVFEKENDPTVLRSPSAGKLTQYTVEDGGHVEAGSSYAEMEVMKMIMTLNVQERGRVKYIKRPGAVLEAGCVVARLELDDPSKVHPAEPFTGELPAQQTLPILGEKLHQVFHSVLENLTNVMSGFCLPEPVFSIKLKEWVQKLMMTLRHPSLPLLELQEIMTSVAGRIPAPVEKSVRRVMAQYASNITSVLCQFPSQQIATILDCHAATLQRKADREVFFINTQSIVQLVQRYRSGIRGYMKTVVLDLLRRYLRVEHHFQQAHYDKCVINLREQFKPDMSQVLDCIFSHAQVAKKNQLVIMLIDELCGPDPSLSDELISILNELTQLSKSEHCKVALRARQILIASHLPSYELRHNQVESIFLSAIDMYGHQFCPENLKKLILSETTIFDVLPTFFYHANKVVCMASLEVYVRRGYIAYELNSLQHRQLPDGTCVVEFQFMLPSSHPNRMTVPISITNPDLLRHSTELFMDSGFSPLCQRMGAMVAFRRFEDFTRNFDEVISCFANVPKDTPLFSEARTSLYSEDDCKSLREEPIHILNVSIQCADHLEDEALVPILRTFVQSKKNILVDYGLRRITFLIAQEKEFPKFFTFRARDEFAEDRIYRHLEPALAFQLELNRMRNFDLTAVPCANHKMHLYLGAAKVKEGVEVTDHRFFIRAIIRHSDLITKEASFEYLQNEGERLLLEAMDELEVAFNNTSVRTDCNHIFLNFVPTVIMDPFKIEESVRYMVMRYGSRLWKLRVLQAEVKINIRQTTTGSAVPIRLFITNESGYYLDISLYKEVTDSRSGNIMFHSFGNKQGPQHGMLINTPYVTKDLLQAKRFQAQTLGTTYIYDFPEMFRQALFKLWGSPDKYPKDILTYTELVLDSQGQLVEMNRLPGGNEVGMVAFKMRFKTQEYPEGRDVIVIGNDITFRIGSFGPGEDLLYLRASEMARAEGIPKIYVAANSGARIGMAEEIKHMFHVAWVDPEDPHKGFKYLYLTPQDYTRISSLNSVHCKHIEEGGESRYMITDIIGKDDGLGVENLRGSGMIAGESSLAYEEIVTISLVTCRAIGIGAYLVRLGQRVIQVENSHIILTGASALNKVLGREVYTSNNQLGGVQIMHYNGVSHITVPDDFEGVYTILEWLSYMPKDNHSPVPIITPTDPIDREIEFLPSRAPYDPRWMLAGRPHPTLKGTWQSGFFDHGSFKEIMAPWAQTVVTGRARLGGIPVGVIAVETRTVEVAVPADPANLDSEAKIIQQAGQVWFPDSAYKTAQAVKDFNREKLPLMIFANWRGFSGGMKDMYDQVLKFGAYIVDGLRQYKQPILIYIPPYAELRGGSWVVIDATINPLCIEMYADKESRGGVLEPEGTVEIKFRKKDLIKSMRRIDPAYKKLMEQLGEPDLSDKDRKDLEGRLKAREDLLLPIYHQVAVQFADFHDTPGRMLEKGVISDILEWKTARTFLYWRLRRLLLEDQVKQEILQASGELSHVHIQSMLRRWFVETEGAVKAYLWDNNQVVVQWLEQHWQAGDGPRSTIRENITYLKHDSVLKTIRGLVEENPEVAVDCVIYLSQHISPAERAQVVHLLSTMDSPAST
Sequence of fACC2 (Q00955 whole entry): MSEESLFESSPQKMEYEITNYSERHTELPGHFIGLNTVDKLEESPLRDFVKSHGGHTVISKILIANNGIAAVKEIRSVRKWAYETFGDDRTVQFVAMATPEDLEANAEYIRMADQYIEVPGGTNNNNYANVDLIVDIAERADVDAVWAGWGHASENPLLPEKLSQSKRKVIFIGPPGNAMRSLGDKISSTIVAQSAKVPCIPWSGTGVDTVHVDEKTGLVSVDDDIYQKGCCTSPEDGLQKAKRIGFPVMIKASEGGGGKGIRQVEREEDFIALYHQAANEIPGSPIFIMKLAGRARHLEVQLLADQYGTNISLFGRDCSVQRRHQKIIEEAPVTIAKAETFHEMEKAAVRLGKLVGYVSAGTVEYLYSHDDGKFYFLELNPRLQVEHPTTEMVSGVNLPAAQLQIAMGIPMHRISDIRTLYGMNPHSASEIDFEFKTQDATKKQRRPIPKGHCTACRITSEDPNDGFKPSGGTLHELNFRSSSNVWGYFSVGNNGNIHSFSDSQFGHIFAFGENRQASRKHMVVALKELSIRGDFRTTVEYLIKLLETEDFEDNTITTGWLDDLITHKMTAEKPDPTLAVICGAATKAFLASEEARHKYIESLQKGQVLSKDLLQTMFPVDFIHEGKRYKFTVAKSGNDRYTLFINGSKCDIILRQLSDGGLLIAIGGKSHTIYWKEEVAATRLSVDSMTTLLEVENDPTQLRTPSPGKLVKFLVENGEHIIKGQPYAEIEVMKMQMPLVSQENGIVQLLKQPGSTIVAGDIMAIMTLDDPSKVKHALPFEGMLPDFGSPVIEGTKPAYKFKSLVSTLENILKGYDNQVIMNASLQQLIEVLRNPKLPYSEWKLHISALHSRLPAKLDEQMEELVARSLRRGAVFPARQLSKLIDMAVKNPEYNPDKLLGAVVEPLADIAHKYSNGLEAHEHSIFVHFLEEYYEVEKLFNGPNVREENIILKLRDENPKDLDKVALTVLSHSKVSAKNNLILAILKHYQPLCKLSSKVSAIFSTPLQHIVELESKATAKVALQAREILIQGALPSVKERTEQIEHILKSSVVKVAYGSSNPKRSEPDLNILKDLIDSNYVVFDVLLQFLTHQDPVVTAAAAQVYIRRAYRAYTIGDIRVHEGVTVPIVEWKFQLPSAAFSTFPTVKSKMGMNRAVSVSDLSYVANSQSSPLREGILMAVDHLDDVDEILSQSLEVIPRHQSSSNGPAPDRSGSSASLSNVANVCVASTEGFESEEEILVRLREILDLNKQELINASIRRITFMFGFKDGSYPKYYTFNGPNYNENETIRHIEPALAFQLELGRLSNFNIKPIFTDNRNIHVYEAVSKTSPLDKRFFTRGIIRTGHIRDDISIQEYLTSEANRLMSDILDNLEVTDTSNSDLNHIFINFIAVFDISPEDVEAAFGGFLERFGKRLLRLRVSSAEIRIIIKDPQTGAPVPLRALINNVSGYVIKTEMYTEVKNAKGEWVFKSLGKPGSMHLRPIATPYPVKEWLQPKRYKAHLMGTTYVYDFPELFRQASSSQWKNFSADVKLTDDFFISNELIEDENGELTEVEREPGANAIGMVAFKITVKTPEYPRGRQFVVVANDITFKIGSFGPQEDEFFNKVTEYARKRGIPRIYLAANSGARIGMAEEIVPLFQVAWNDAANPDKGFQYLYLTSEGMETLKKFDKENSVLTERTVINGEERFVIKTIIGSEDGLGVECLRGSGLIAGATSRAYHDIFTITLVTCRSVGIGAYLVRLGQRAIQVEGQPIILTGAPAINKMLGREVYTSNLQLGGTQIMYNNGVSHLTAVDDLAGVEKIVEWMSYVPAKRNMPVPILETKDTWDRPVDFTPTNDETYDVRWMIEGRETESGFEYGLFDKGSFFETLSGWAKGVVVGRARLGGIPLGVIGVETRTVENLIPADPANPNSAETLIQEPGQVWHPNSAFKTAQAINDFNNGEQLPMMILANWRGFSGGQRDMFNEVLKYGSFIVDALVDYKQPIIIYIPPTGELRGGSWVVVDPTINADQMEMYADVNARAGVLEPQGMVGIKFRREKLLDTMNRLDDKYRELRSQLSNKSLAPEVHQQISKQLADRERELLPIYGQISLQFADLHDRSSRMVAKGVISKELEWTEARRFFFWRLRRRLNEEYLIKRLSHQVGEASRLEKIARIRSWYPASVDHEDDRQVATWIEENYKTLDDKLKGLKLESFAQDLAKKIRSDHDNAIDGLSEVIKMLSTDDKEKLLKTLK

With `CCOC(=O)c1sc2c(c1C)c(=O)n([C@@H](C)C(=O)N1CCCC1)c(=O)n2C[C@H](OCCC#N)c1cc(F)ccc1OC` [Compound I-23, ethyl 1-((R)-2-(2-cyanoethoxy)-2-(5-fluoro-2-methoxy-phenyl)ethyl)-5-methyl-2,4-dioxo-3-((S)-1-oxo-1-(pyrrolidin-1-yl)propan-2-yl)-1,2,3,4-tetrahydrothieno[2,3-d]pyrimidine-6-carboxylate] the IC50 (hACC2; Table 2b (additional results)) was 3 to 10 nM, the IC50 (fACC2; Table 2b (additional results)) was 3 to 10 nM and the MIC (C. albicans ATCC 90028; Table 3b (additional results)) was 2.1 to 4 µg/mL (≈ 3.5 to 6.66 µM). The MIC ([1]; Table 3b (additional results)) was over 4.1 µg/mL and the MIC (C. krusei ATCC 6258; Table 3b (additional results)) was 0.25 to 1 µg/mL (≈ 0.416 to 1.66 µM).

Molecule `CCOC(=O)c1sc2c(c1C)c(=O)n(C(C)(C)C(=O)N1CCCC1)c(=O)n2C[C@H](OCCOC)c1cc(F)ccc1OC` [Compound I-13, (R)-ethyl 1-(2-(5-fluoro-2-methoxyphenyl)-2-(2-methoxy-ethoxy)ethyl)-5-methyl-3-(2-methyl-1-oxo-1-(pyrrolidin-1-yl)propan-2-yl)-2,4-dioxo-1,2,3,4-tetrahydrothieno[2,3-d]pyrimidine-6-carboxylate] has an IC50 (hACC2; Table 2a) of 10 to 40 nM, an IC50 (fACC2; Table 2a) of 0.6 to 3 nM and an MIC (C. albicans ATCC 90028; Table 3a) of over 4.1 µg/mL. The MIC (C. albicans ATCC 90028; Table 3b (additional results)) was 2.1 to 4 µg/mL (≈ 3.39 to 6.45 µM), the MIC ([1]; Table 3a) was over 4.1 µg/mL and the MIC ([1]; Table 3b (additional results)) was 2.1 to 4 µg/mL (≈ 3.39 to 6.45 µM). It also gave an MIC (C. krusei ATCC 6258; Table 3a) of over 4.1 µg/mL and an MIC (C. krusei ATCC 6258; Table 3b (additional results)) of 2.1 to 4 µg/mL (≈ 3.39 to 6.45 µM).

`CCNC(=O)[C@@H](C)n1c(=O)c2c(C)c(C(=O)OCC)sc2n(C[C@H](OCCC#N)c2cc(F)ccc2OC)c1=O` [Compound I-41, ethyl 1-((R)-2-(2-cyanoethoxy)-2-(5-fluoro-2-methoxy-phenyl)ethyl)-3-((R)-1-(ethylamino)-1-oxopropan-2-yl)-5-methyl-2,4-dioxo-1,2,3,4-tetrahydrothieno[2,3-d]pyrimidine-6-carboxylate] gave an IC50 (hACC2; Table 2b (additional results)) of 10 to 40 nM, an IC50 (fACC2; Table 2b (additional results)) of 0.3 to 3 nM and an MIC (C. albicans ATCC 90028; Table 3b (additional results)) of 2.1 to 4 µg/mL (≈ 3.65 to 6.96 µM). It also gave an MIC ([1]; Table 3b (additional results)) of 2.1 to 4 µg/mL (≈ 3.65 to 6.96 µM) and an MIC (C. krusei ATCC 6258; Table 3b (additional results)) of 2.1 to 4 µg/mL (≈ 3.65 to 6.96 µM).

With `CCOC(=O)c1sc2c(c1C)c(=O)n(C(C)(C)C(=O)NC(C)C)c(=O)n2C[C@H](OCCO)c1cc(F)ccc1OC` [Compound I-18, (R)-ethyl 1-(2-(5-fluoro-2-methoxyphenyl)-2-(2-hydroxy-ethoxy)ethyl)-3-(1-(isopropylamino)-2-methyl-1-oxopropan-2-yl)-5-methyl-2,4-dioxo-1,2,3,4-tetrahydrothieno[2,3-d]pyrimidine-6-carboxylate] the IC50 (hACC2; Table 2a) was 10 to 40 nM, the IC50 (fACC2; Table 2a) was 0.6 to 3 nM and the MIC (C. albicans ATCC 90028; Table 3a) was 1.1 to 2 µg/mL (≈ 1.85 to 3.37 µM). For the same molecule, the MIC (C. albicans ATCC 90028; Table 3b (additional results)) was 1.1 to 2 µg/mL (≈ 1.85 to 3.37 µM), the MIC ([1]; Table 3a) was 2.1 to 4 µg/mL (≈ 3.54 to 6.74 µM) and the MIC ([1]; Table 3b (additional results)) was 1.1 to 2 µg/mL (≈ 1.85 to 3.37 µM). For the same molecule, the MIC (C. krusei ATCC 6258; Table 3a) was 0.25 to 1 µg/mL (≈ 0.421 to 1.68 µM) and the MIC (C. krusei ATCC 6258; Table 3b (additional results)) was 0.25 to 1 µg/mL (≈ 0.421 to 1.68 µM).

Work on `CCNC(=O)C(C)(C)n1c(=O)c2c(C)c(C(=O)OCC)sc2n(C[C@H](O)c2cc(F)ccc2OC)c1=O` [Compound I-39, ethyl (R)-3-(1-(ethylamino)-2-methyl-1-oxopropan-2-yl)-1-(2-(5-fluoro-2-methoxyphenyl)-2-hydroxyethyl)-5-methyl-2,4-dioxo-1,2,3,4-tetrahydrothieno[2,3-d]pyrimidine-6-carboxylate] yielded an IC50 (hACC2; Table 2b (additional results)) of 10 to 40 nM, an IC50 (fACC2; Table 2b (additional results)) of 0.3 to 3 nM and an MIC (C. albicans ATCC 90028; Table 3b (additional results)) of 2.1 to 4 µg/mL (≈ 3.92 to 7.47 µM). The MIC ([1]; Table 3b (additional results)) was 2.1 to 4 µg/mL (≈ 3.92 to 7.47 µM) and the MIC (C. krusei ATCC 6258; Table 3b (additional results)) was 0.25 to 1 µg/mL (≈ 0.467 to 1.87 µM).
